This is an account of results in ChEMBL document CHEMBL1151151, “Anti-AIDS agents, 2: Inhibitory effects of tannins on HIV reverse transcriptase and HIV replication in H9 lymphocyte cells” (J Nat Prod, 1990).

Calls of active or inactive are those of the source. The rule behind the calls is not given here.

In data set [1] the test system is Human immunodeficiency virus 1. Put plainly: Antiviral activity against HIV1 3B infected in human H9 cells assessed as inhibition of viral replication at 18 uM treated after viral infection by p24 antigen capture assay. Type of data set: functional, organism-based.
Data set [2] concerns Human immunodeficiency virus 1. The data set is described as follows: Antiviral activity against HIV1 3B infected in human H9 cells assessed as inhibition of viral replication at 21 uM treated after viral infection by p24 antigen capture assay. The data set is classed as functional, organism-based.
The test system of data set [3] is Human immunodeficiency virus 1. The data set is described as follows: Antiviral activity against HIV1 3B infected in human H9 cells assessed as inhibition of viral replication at 18 uM pretreated before viral infection by p24 antigen capture assay. Type of data set: functional, organism-based.
Data set [4] relates to Human immunodeficiency virus 1. Put plainly: Antiviral activity against HIV1 3B infected in human H9 cells assessed as inhibition of viral replication after 3 days by p24 antigen capture assay. Type of data set: functional. Details: concentration or dose not given beside the values.
The subject of data set [5] is Human immunodeficiency virus 1. The data set is described as follows: Antiviral activity against HIV1 3B infected in human H9 cells assessed as inhibition of viral replication at 18 uM treated during viral infection step by p24 antigen capture assay. Type of data set: functional, organism-based.
In data set [6] the test system is Human immunodeficiency virus 1. Put plainly: Antiviral activity against HIV1 3B infected in human H9 cells assessed as inhibition of viral replication at 21 uM pretreated before viral infection by p24 antigen capture assay. The data set is classed as functional, organism-based.
Data set [7] relates to Human immunodeficiency virus 1. Put plainly: Antiviral activity against HIV1 3B infected in human H9 cells assessed as inhibition of viral replication at 21 uM treated during viral infection step by p24 antigen capture assay. Type of data set: functional, organism-based.
Data set [8] has as its target Human immunodeficiency virus type 1 reverse transcriptase (Human immunodeficiency virus 1) (UniProt Q72547). Put plainly: Inhibition of HIV reverse transcriptase.
Data set [9] concerns Human immunodeficiency virus 1. Put plainly: Antiviral activity against HIV1 3B infected in human H9 cells assessed as inhibition of viral replication at 10 uM treated during viral infection step by p24 antigen capture assay. The data set is classed as functional, organism-based.
In data set [10] the test system is Human immunodeficiency virus 1. The data set is described as follows: Antiviral activity against HIV1 3B infected in human H9 cells assessed as inhibition of viral replication at 10 uM pretreated before viral infection by p24 antigen capture assay. The data set is classed as functional, organism-based.
Data set [11] addresses Human immunodeficiency virus type 1 reverse transcriptase (Human immunodeficiency virus 1) (UniProt Q72547). Put plainly: Inhibition of polymerase activity of HIV reverse transcriptase assessed as residual enzyme activity at 46 uM in presence of 75 ug/ml activated dNA and 5 uM dTTP.
Data set [12] relates to Human immunodeficiency virus 1. The data set is described as follows: Antiviral activity against HIV1 3B infected in human H9 cells assessed as inhibition of viral replication at 9.2 uM pretreated before viral infection by p24 antigen capture assay. The data set is classed as functional, organism-based.
Data set [13] concerns the target Human immunodeficiency virus type 1 reverse transcriptase (Human immunodeficiency virus 1) (UniProt Q72547). The data set is described as follows: Inhibition of polymerase activity of HIV reverse transcriptase assessed as residual enzyme activity at 46 uM in presence of 75 ug/ml activated dNA and 25 uM dTTP.
Data set [14] has as its system Human immunodeficiency virus 1. Put plainly: Antiviral activity against HIV1 3B infected in human H9 cells assessed as inhibition of viral replication at 9.2 uM treated during viral infection step by p24 antigen capture assay. Type of data set: functional, organism-based.
Data set [15] deals with Human immunodeficiency virus type 1 reverse transcriptase (Human immunodeficiency virus 1) (UniProt Q72547). The data set is described as follows: Inhibition of polymerase activity of HIV reverse transcriptase assessed as residual enzyme activity at 46 uM in presence of 375 ug/ml activated dNA and 5 uM dTTP.
Data set [16] shares this target. The data set is described as follows: Inhibition of HIV reverse transcriptase at 12.5 uM. As to conditions: TDE = time-dependent effect.
The target is the same in data set [17]. Put plainly: Inhibition of polymerase activity of HIV reverse transcriptase assessed as residual enzyme activity at 64 uM in presence of 375 ug/ml activated dNA and 5 uM dTTP.
A short description of data set [18]: Growth inhibition of human H9 cells at 30 uM. Type of data set: cell-based. As to conditions: read-out: GI.
In data set [19] the test system is Human immunodeficiency virus 1. Put plainly: Antiviral activity against HIV1 3B infected in human H9 cells assessed as inhibition of viral replication at 13 uM pretreated before viral infection by p24 antigen capture assay. The data set is classed as functional, organism-based.
Data set [20] deals with Human immunodeficiency virus 1. The data set is described as follows: Antiviral activity against HIV1 3B infected in human H9 cells assessed as inhibition of viral replication at 13 uM treated during viral infection step by p24 antigen capture assay. Type of data set: functional, organism-based.
For data set [21], the target named is Human immunodeficiency virus type 1 reverse transcriptase (Human immunodeficiency virus 1) (UniProt Q72547). Put plainly: Inhibition of polymerase activity of HIV reverse transcriptase assessed as residual enzyme activity at 64 uM in presence of 75 ug/ml activated dNA and 25 uM dTTP.
For data set [22] the target is unchanged. The data set is described as follows: Inhibition of polymerase activity of HIV reverse transcriptase assessed as residual enzyme activity at 64 uM in presence of 75 ug/ml activated dNA and 5 uM dTTP.

Consider `O=C(O[C@@H]1[C@H](O)C[C@@](OC(=O)c2cc(O)c(O)c(O)c2)(C(=O)O)C[C@H]1OC(=O)c1cc(O)c(O)c(O)c1)c1cc(O)c(O)c(O)c1`, for which the result in [1], in [2], in data set [3] and in data set [5] was Active. In addition, the “inhibition (INH)” value in data set [4] is more than 50%.
Regarding `O=C(O)C1=C[C@@H](OC(=O)c2cc(O)c(O)c(O)c2)[C@@H](OC(=O)c2cc(O)c(O)c(O)c2)[C@H](OC(=O)c2cc(O)c(O)c(O)c2)C1`, the “inhibition (INH)” value in [4] is reported as more than 50%.
As for `O=C(O)C1=C[C@@H](OC(=O)c2cc(O)c(O)c(O)c2)[C@@H](O)[C@H](OC(=O)c2cc(O)c(O)c(O)c2)C1`, the result in [1], in data set [2], in [6] and in data set [7] was Active. Besides, in data set [4], the “inhibition (INH)” value was more than 50%.
As for `O=C(O[C@@H]1O[C@@H]2COC(=O)c3cc(O)c(O)c(O)c3-c3c(cc(O)c(O)c3O)C(=O)O[C@H]2[C@@H]2OC(=O)c3cc(O)c(O)c(O)c3-c3c(cc(O)c(O)c3O)C(=O)O[C@@H]12)c1cc(O)c(O)c(Oc2c(O)c(O)c(O)c3c2C(=O)O[C@H]2[C@@H]4OC(=O)c5cc(O)c(O)c(O)c5-c5c(cc(O)c(O)c5O)C(=O)O[C@H]4[C@@H](OC(=O)c4cc(O)c(O)c(Oc5c(O)c(O)c(O)c6c5C(=O)O[C@H]5[C@@H]7OC(=O)c8cc(O)c(O)c(O)c8-c8c(cc(O)c(O)c8O)C(=O)O[C@H]7[C@H](OC(=O)c7cc(O)c(O)c(Oc8c(O)c(O)c(O)c9c8C(=O)O[C@H]8[C@@H]%10OC(=O)c%11cc(O)c(O)c(O)c%11-c%11c(cc(O)c(O)c%11O)C(=O)O[C@H]%10[C@@H](OC(=O)c%10cc(O)c(O)c(O)c%10)O[C@@H]8COC(=O)c8cc(O)c(O)c(O)c8-9)c7)O[C@@H]5COC(=O)c5cc(O)c(O)c(O)c5-6)c4)O[C@@H]2COC(=O)c2cc(O)c(O)c(O)c2-3)c1`, the ID50 in data set [8] was determined as 20 µM.
Turning to `O=C(O)C[C@@H]1C(=O)O[C@H]2[C@@H]3OC(=O)c4cc(O)c(O)c(O)c4-c4c(cc(O)c(O)c4O)C(=O)OC[C@H]2O[C@@H](OC(=O)c2cc(O)c(O)c(O)c2)[C@@H]3OC(=O)c2cc(O)c(O)c3c2[C@H]1[C@H](O)C(=O)O3` [CHEBULAGIC ACID], the outcome in data set [9], in [1] and in data set [2] was Active. Moreover, in data set [4], the “inhibition (INH)” value is recorded as more than 50%. Besides, the outcome in data set [10] was inactive.
For the compound `O=C(O)C[C@H]1C(=O)O[C@H]2[C@H](OC(=O)c3cc(O)c(O)c(O)c3)[C@@H](OC(=O)c3cc(O)c(O)c4c3[C@H]1[C@H](O)C(=O)O4)[C@H](OC(=O)c1cc(O)c(O)c(O)c1)O[C@@H]2COC(=O)c1cc(O)c(O)c(O)c1` [CHEBULINIC ACID], the outcome in [9], in [1], in data set [2] and in data set [10] was Active. In addition, the “inhibition (INH)” value in [4] is more than 50%.
Turning to `O=C1O[C@H]([C@@H]2OC(=O)c3cc(O)c(O)c(O)c3-c3c(O)c(O)c4oc(=O)c5c(c(O)c(O)c6oc(=O)c3c4c65)-c3c(cc(O)c(O)c3O)C(=O)OC[C@H]2O)[C@@H]2OC(=O)c3c(c(O)c(O)c(O)c3[C@H]2O)-c2c1cc(O)c(O)c2O` [PUNICACORTEIN C], the figures for the Activity in [11], in [13] and in data set [15] were 21.5%, 37.6% and 46.2%, respectively. In data set [8], this compound had an ID50 of 5 µM. Besides, the result in data set [1], in data set [12], in [2] and in data set [14] was Active. Besides, the “inhibition (INH)” value in data set [4] was more than 50%.
As for `O=C1O[C@@H]2[C@@H](OC(=O)c3cc(O)c(O)c(O)c3-c3c1cc(O)c(O)c3O)[C@H](O)O[C@@H]1COC(=O)c3cc(O)c(O)c(O)c3-c3c(O)c(O)c4oc(=O)c5c(c(O)c(O)c6oc(=O)c3c4c65)-c3c(cc(O)c(O)c3O)C(=O)O[C@@H]21` [PUNICALAGIN], the outcome in data set [1], in data set [12], in [2] and in [14] was Active. Moreover, the “inhibition (INH)” value in [4] is on record as more than 50%.
In the case of `O=C1OC[C@H]2O[C@@H](O)[C@H](O)[C@@H](O)[C@@H]2OC(=O)c2cc(O)c(O)c(O)c2-c2c(O)c(O)c3oc(=O)c4c(c(O)c(O)c5oc(=O)c2c3c54)-c2c1cc(O)c(O)c2O` [PUNICALIN], the Activity result is “tde” in data set [16]; “Dose-dependent effect” in [8]; 45.3% in data set [17]; 34.4% in [21]; 11.4% in data set [22]. This compound registered an ID50 in data set [8] of 8 µM. Moreover, the result in data set [1], in [2] and in data set [20] was Active. For the same compound, the inhibition at 30 µM in [18] stood at 15%. In data set [19], the result was inactive. Further, in [4], the “inhibition (INH)” value is reported as more than 50%.
